Data published in patent US20240374743A1, “BLETILLA STRIATA POLYSACCHARIDE IRON COMPLEX, PREPARATION METHOD THEREFOR AND USE THEREOF” (priority 2023, published 2024).

System: mouse model of iron deficiency anemia
Assay: Anti-iron deficiency anemia test in mice
Type: in vivo, ICR mice
Description: Experimental animals: 35 ICR mice, clean grade, body weight 20-25 g, female.
Establishment of a mouse model of iron deficiency anemia: All mice were kept in a stainless steel cage, in which wood dust was used as padding to prevent iron from other sources from affecting the experimental results. The mice were adaptively fed at room temperature (24±1° C.) and humidity 50% for 3 days and then randomly divided into 7 groups, with 5 mice in each group. Five mice fed with basal feed (Fe>100 mg kg^−1) were used as a blank control group, and the remaining 30 mice were given a low-iron diet (Fe: 10 mg·kg^−1, AIN93 standard) and randomly divided into a model group (Model), a positive drug (Niferex) group, a ferrous sulfate (FeSO4) group, and low-dose, medium-dose and high-dose groups of the Bletilla striata polysaccharide-iron (III) complex prepared in Example 4. After adaptive feeding, 0.1 mL of blood was taken from the cheeks of all mice, and the routine blood test data, serum iron three-term test data, and other data were determined by using a blood cell analyzer and used as normal values before modeling. Blood was drawn from the cheek of each mouse twice a week, but the blood was not collected. The mice in each group got free access to water. After three consecutive weeks of feeding, 0.2 mL of blood was collected from the cheeks of the mice in each group and then measured for various hematological indexes, and the body weight changes were recorded and plotted. […] Mice that failed in modeling were excluded and were not included in any drug group.
Method of administration: Mice were administered by gavage at 8 am every day for 28 consecutive days. During gavage, the mice in each group got free access to water and fed normal diet. The mice in the blank control group and the model control group were given the same volume of distilled water, the mice in the positive drug group were given a drug with an Fe content of 0.039 mg/kg, the mice in FeSO4 group were given a drug with an Fe content of 0.039 mg/kg, and the mice in the low-dose, medium-dose and high-dose groups of the Bletilla striata polysaccharide-iron (III) complex were given drugs with Fe contents of 0.0195 mg/kg, 0.039 mg/kg, and 0.078 mg/kg, respectively. Except the blank control group, the other six groups were given a low-iron feed. The body weight was weighed, recorded, and plotted once a week, and the animal state was observed.
Sample collection: After the last administration by gavage, the mice in each group got free access to water for 12 hours and sacrificed, whole blood was collected from the heart to determine various biochemical indexes, including hemoglobin content (Hb) in red blood cells, red blood cell count (RBC), hematocrit (HCT), mean corpuscular volume (MCV), mean corpuscular hemoglobin content (MCH), mean corpuscular hemoglobin concentration (MCHC), red blood cell volume distribution width (RDW), serum iron (SI) content, total iron binding capacity (TIBC), and erythropoietin (EPO). Liver and spleen tissues were taken, weighed, and recorded, and the organ index was calculated. The organ coefficient was calculated according to the following equation, and a histogram was plotted for analysis: […]

[1] = Fe 0.039 mg/kg (medium-dose group), gavage 28 days
[2] = gavage 28 days, complex low-, medium- and high-dose groups, Niferex and FeSO4 Fe 0.039 mg/kg

For ferrous sulfate [FeSO4], the HCT [1] was 0.29 ± 0.05, the MCH [1] was 17.83 ± 0.63 and the MCHC [1] was 400.49 ± 16.03. The MCV [1] was 51.20 ± 2.07, the RBC value [1] was 6.85 10^12/L and the RDW [1] was 25.56 ± 2.99. For the same substance, the “effect on EPO compared with model group” value (Fe 0.039 mg/kg, gavage 28 days) was “no regulatory effect on EPO”, the “liver index compared with model group” value (Fe 0.039 mg/kg, gavage 28 days) was “not strong” and the “body weight after 28 days of administration (comparison between groups)” value (Fe 0.039 mg/kg, gavage daily 28 days) was “extremely significantly different from that in the control group”. For the same substance, the “Hb value compared with control group” value [2] was “not significantly different from that in the control group” and the “effect on total iron binding capacity (TIBC)” value [2] was “best effect”.
